Biological target: T1, Type-2 angiotensin II receptor (Homo sapiens, UniProt P50052)
T1 sequence (P50052 whole entry): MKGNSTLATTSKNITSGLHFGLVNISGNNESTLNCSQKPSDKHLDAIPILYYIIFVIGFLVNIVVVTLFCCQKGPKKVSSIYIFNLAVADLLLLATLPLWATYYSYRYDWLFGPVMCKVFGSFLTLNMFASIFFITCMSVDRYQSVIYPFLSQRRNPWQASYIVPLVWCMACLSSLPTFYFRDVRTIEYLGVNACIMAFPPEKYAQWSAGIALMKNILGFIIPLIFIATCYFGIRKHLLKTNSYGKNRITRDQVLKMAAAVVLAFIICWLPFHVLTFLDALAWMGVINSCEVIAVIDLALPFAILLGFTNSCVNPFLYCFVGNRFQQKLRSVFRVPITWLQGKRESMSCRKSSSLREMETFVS
Test: AT2 Receptor Binding Assay: 120 μL membrane ([…]) was incubated with 15 μL of [125I]-CGP42112A and 15 μL of compound at RT for 1.5 hrs.The binding reaction was stopped by rapid filtration through Unifilter GF/C plates (presoaked in 0.3% (v:v) BSA).Plate was washed three times with ice cold wash buffer.The filtration plates were dried at 37° C. overnight.50 μL of scintillation cocktail was added to each well.Radioactivity was determined using MicroBetaTriltuunicroplate scintillation counter.

O=C(O)[C@@H]1CN(CC#Cc2ccc(F)cc2)CCN1C(=O)C(c1ccccc1)c1ccccc1
IC50: 3.92 µM
